{"source": "ChEMBL document CHEMBL1201862", "about": "“PubChem BioAssay data set” (2004)", "key": {"CHO-K1": {"tested_on": "CHO-K1", "experiment": "(§1) Counterscreen for antagonists of the orexin 1 receptor (OX1R; HCRTR1): Homogeneous time resolved fluorescence (HTRF)-based cell-based dose response assay to identify antagonists of the parental CHO-K1 cell line. [Related pubchem assays (depositor defined):AID434989, AID435008, AID463079, AID485270, AID492963, AID492964, AID492965, AID493232, AID504699, AID504701]", "assay_type": "functional", "settings": "Cricetulus griseus"}, "[1]": {"experiment": "as §1, with “Fluorescence-based” for “Homogeneous time resolved fluorescence (HTRF)-based”, “cell-based high throughput” for “cell-based”, “CHO” for “CHO-K1”", "assay_type": "functional"}, "[2]": {"biological_target": "T1, Orexin/Hypocretin receptor type 1 (Homo sapiens, UniProt O43613)", "T1 sequence (O43613 whole entry)": "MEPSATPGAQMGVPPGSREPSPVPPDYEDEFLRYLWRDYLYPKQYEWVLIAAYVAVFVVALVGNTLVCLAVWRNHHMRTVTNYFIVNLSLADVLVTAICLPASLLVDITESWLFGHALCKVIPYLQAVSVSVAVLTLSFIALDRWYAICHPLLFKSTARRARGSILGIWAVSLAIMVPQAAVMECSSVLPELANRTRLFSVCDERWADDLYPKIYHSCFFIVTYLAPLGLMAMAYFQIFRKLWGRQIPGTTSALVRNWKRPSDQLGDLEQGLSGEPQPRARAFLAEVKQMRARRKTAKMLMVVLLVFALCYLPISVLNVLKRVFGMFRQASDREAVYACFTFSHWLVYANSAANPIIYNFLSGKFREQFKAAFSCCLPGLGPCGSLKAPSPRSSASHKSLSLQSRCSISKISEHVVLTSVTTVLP", "experiment": "Homogeneous Time Resolved Fluorescence (HTRF)-based cell-based high throughput dose response assay for antagonists of the orexin 1 receptor (OX1R; HCRTR1). [Related pubchem assays (depositor defined):AID434989, AID435008, AID463079, AID485270, AID492963, AID492964, AID492965, AID493232, AID504717, AID504718]", "assay_type": "functional"}, "[3]": {"biological_target": "T1, Orexin/Hypocretin receptor type 1", "experiment": "Fluorescence-based cell-based high throughput dose response assay for antagonists of the orexin 1 receptor (OX1R; HCRTR1). [Related pubchem assays (depositor defined):AID434989, AID435008, AID463079, AID485270, AID492963, AID492964, AID492965, AID493232, AID504717, AID504718]", "assay_type": "functional"}, "Orexin receptor type 2 [4]": {"biological_target": "T2, Orexin receptor type 2 (Homo sapiens, UniProt O43614)", "T2 sequence (O43614 whole entry)": "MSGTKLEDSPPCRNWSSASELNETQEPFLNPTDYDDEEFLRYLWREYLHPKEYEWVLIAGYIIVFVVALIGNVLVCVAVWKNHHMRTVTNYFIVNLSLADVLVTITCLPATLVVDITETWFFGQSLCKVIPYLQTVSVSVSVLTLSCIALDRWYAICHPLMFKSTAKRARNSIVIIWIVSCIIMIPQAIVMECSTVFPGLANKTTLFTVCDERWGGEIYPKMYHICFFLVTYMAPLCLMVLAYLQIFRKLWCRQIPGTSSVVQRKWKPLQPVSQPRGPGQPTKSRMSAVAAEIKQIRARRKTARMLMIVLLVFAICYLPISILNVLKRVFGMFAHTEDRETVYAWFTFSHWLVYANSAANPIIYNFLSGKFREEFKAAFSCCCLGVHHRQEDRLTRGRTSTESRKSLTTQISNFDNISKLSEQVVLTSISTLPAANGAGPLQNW", "experiment": "Counterscreen assay for antagonists of the orexin 1 receptor (OX1R; HCRTR1): Fluorescence-based cell-based dose response assay for antagonists of the orexin 2 receptor (OX2R; HCRTR2), run by assay provider.", "assay_type": "functional"}, "Orexin receptor type 2 [5]": {"biological_target": "T2, Orexin receptor type 2", "experiment": "Counterscreen assay for antagonists of the orexin 1 receptor (OX1R; HCRTR1): Homogeneous Time Resolved Fluorescence (HTRF)-based cell-based dose response assay for antagonists of the orexin 2 receptor (OX2R; HCRTR2), run by assay provider.", "assay_type": "functional"}, "[6]": {"biological_target": "T3, Apoptotic protease-activating factor 1 (Homo sapiens, UniProt O14727)", "T3 sequence (O14727 whole entry)": "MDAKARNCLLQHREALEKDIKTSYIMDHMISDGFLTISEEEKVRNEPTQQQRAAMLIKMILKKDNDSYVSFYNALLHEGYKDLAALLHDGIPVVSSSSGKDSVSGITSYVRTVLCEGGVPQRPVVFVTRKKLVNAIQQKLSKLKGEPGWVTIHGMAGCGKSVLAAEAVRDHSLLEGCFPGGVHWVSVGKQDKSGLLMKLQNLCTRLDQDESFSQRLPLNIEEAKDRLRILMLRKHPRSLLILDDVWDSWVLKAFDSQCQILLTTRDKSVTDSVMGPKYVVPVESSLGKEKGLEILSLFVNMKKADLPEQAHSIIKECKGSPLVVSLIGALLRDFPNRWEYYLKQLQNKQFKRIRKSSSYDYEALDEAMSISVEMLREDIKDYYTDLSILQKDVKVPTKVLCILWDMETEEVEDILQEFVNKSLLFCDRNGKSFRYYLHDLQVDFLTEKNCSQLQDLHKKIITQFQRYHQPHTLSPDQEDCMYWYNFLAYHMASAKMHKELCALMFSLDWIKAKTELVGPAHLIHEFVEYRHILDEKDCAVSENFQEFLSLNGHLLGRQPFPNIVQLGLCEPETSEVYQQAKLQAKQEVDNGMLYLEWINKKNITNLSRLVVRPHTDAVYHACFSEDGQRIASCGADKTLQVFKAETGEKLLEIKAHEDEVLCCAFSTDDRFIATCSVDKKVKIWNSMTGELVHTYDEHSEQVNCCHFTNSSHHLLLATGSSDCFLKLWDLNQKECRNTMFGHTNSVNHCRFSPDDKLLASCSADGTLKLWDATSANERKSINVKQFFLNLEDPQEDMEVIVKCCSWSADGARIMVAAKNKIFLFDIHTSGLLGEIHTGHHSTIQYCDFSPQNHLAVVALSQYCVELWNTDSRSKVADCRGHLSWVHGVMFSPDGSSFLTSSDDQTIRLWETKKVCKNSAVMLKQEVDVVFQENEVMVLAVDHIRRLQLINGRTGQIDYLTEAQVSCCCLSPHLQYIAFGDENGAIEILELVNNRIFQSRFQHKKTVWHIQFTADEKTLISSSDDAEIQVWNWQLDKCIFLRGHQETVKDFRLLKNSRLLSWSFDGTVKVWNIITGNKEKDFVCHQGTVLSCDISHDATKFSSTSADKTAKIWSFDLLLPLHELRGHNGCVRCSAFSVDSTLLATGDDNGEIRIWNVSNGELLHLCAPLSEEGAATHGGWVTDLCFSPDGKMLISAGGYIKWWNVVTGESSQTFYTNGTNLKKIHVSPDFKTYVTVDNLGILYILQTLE", "experiment": "SAR analysis of small molecule Activators of Apaf-1 in a Fluorescent assay.", "assay_type": "functional", "settings": "read-out: EC50_Mean"}, "[7]": {"biological_target": "T4, Voltage-gated N-type calcium channel alpha-1B subunit/Amyloid beta A4 precursor protein-binding family A member 1 (Homo sapiens, UniProt Q00975+Q02410)", "T4 sequence (Q00975 whole entry)": "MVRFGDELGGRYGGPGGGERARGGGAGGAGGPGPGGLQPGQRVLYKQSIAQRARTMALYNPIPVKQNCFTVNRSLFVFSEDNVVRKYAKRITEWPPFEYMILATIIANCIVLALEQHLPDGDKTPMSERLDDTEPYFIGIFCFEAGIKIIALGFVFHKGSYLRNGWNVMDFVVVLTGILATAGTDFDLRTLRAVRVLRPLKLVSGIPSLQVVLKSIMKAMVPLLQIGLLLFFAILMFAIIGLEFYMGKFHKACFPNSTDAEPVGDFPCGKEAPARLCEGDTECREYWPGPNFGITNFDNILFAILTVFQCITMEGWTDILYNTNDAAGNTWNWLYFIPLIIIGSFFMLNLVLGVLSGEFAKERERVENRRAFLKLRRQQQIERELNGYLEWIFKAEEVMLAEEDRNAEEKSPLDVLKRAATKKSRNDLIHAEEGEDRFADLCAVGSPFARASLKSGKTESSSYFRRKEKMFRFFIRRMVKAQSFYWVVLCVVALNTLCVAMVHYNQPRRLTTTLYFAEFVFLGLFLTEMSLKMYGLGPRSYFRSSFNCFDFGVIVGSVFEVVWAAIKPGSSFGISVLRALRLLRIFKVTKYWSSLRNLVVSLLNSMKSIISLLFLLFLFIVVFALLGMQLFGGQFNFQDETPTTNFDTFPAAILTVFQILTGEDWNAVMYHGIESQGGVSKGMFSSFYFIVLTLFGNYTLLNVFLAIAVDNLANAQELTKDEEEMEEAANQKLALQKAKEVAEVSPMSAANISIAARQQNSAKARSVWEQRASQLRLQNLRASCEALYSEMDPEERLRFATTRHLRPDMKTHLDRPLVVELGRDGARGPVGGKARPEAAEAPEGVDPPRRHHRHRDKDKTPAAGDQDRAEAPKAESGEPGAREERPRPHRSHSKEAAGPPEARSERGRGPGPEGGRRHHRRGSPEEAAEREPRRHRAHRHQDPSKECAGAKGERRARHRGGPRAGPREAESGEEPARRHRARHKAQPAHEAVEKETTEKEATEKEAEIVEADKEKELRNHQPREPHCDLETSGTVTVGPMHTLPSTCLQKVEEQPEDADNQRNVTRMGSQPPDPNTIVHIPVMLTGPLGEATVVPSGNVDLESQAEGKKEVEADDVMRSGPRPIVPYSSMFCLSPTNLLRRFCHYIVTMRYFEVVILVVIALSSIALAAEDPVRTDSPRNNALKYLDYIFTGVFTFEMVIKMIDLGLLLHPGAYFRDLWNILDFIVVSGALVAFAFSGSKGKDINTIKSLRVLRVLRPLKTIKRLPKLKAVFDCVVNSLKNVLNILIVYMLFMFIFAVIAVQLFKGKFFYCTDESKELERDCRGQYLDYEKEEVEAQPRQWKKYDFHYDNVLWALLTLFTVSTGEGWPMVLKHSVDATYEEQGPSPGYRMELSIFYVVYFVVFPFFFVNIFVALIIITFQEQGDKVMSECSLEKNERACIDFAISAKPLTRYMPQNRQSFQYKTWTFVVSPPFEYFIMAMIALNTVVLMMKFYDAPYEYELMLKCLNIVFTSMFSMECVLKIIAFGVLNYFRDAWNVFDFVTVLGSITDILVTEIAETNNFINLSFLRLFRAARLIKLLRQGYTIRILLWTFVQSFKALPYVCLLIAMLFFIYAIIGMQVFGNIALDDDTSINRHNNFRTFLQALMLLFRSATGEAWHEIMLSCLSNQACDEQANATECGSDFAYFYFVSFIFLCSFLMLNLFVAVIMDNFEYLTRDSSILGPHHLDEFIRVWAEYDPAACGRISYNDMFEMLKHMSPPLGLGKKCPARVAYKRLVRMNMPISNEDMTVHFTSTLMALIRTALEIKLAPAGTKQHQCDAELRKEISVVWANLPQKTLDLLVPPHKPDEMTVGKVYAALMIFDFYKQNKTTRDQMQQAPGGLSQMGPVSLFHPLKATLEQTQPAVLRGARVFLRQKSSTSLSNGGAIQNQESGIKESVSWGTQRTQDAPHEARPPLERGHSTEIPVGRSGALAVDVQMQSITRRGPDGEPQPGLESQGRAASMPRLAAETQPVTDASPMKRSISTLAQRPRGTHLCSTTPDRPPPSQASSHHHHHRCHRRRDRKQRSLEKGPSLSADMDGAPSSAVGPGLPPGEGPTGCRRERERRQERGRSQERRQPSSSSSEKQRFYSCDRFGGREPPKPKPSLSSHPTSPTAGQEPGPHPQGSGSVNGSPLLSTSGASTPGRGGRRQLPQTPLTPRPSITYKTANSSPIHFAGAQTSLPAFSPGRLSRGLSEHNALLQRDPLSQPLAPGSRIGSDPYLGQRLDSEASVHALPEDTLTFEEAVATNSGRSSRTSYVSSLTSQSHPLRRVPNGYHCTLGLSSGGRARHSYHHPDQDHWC", "T4 sequence (Q02410 whole entry)": "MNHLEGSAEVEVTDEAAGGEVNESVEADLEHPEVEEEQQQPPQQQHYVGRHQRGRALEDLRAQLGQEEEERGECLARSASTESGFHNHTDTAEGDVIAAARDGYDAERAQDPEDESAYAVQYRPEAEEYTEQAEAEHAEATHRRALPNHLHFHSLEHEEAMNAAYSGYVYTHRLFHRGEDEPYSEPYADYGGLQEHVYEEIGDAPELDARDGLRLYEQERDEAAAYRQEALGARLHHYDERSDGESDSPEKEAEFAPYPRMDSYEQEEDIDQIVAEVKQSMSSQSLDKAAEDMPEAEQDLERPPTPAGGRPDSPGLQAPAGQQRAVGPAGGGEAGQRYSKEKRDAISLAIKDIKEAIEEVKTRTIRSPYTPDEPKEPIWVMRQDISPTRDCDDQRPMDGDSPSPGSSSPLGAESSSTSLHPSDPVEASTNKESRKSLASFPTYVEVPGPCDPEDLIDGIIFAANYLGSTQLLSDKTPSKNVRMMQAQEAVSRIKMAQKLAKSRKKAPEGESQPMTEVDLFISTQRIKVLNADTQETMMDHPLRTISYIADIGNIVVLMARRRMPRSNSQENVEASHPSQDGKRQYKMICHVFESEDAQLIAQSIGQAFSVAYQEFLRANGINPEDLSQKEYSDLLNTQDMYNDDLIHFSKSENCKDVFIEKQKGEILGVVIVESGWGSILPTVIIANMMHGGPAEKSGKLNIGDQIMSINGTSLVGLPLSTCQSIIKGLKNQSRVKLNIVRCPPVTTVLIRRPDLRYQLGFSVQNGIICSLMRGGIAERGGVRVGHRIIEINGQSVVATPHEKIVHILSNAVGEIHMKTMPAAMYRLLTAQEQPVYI", "assay_type": "protein assay"}, "NS3": {"biological_target": "NS3 (Hepatitis C virus, UniProt A3EZJ3)", "sequence (A3EZJ3 whole entry)": "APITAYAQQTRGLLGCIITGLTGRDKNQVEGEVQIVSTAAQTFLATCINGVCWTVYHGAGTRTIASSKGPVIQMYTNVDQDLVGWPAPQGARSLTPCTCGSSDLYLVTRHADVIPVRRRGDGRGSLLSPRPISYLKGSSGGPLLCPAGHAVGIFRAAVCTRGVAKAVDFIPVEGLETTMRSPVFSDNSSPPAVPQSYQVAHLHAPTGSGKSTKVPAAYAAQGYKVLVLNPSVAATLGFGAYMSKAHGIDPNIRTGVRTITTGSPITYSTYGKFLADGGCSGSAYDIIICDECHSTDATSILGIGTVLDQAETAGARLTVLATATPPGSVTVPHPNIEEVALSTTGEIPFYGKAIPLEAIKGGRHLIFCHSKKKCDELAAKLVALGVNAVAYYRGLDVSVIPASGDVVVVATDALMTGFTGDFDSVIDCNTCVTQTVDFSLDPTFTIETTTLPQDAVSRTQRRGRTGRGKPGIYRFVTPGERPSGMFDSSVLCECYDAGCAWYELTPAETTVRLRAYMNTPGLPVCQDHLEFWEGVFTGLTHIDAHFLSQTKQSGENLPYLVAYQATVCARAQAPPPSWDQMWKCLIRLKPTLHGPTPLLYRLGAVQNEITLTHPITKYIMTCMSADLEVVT", "experiment": "PubChem AID 2173", "design": "species or system Hepacivirus hominis"}, "[8]": {"biological_target": "T4, Voltage-gated N-type calcium channel alpha-1B subunit/Amyloid beta A4 precursor protein-binding family A member 1", "assay_type": "protein assay", "remark": "listed apart in the source"}, "[9]": {"biological_target": "T5, Bifunctional protein GlmU (Mycobacterium tuberculosis, UniProt P9WMN3)", "T5 sequence (P9WMN3 whole entry)": "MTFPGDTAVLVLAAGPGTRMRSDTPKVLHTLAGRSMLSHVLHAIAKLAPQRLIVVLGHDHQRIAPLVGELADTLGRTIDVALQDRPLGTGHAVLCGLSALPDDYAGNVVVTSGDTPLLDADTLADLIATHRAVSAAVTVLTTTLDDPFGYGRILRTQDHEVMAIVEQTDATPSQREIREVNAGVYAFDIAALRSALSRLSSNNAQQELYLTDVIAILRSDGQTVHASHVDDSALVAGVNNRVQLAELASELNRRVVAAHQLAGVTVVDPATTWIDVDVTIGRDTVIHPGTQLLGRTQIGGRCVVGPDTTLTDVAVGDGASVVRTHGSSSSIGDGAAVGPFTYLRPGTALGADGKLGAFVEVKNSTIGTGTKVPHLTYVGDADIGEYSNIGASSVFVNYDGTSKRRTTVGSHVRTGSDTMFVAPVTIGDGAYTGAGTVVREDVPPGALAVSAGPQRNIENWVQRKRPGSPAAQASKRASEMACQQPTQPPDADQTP", "experiment": "Inhibitors of Mycobacterial Glucosamine-1-phosphate acetyl transferase (GlmU). Secondary screen.", "design": "species or system Mycobacterium tuberculosis H37Rv"}, "[10]": {"biological_target": "Induced myeloid leukemia cell differentiation protein Mcl-1 (Homo sapiens, UniProt Q07820)", "assay_type": "functional"}, "ORF 73": {"biological_target": "ORF 73 (Human herpesvirus 8, UniProt O40947)", "sequence (O40947 whole entry)": "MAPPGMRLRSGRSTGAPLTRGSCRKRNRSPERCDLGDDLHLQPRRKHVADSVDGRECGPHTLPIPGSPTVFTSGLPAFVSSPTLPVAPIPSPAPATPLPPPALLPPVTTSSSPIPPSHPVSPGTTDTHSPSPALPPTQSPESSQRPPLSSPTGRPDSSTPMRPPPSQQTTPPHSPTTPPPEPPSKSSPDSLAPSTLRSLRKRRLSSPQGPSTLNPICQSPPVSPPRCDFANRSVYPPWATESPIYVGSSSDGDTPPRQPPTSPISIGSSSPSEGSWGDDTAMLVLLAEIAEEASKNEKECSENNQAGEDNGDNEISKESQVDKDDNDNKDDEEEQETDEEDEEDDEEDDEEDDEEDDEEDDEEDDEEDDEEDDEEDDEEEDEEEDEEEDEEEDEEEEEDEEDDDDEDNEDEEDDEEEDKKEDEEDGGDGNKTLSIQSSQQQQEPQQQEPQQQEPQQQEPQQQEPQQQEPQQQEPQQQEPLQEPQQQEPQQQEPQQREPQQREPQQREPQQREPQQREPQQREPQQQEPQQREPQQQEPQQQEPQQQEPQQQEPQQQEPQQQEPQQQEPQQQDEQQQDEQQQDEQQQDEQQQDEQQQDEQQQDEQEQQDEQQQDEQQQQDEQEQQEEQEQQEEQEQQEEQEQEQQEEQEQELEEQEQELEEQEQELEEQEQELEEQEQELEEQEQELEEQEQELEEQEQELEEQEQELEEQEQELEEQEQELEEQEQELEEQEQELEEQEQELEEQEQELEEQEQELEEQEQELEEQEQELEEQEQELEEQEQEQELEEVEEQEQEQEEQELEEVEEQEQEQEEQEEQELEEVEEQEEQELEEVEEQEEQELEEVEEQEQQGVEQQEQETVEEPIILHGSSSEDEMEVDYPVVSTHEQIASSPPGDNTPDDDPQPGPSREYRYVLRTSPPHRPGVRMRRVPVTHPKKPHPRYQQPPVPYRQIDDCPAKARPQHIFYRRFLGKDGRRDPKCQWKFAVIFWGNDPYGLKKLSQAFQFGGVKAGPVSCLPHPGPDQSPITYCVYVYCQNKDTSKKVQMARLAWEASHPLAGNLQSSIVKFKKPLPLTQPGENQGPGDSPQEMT", "experiment": "inhibitors of C-LANA binding to LBS DNA, dose response, biochemical, fluorescence polarization, cherry-picked samples (AID 504725)", "design": "species or system Human gammaherpesvirus 8"}, "[11]": {"biological_target": "Eukaryotic translation initiation factor 4E (Mus musculus, UniProt P63073)", "sequence (P63073 whole entry)": "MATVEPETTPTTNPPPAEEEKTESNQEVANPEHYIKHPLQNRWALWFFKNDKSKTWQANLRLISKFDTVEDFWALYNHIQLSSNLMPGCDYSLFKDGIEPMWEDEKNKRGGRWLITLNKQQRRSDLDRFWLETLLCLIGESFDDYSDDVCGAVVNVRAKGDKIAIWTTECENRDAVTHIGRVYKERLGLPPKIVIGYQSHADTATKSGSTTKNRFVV", "experiment": "eIF4E–eIF4G protein interaction inhibitors, dose response, biochemical, TR-FRET (AID 855)", "assay_type": "functional"}, "[12]": {"biological_target": "DNA (cytosine-5)-methyltransferase 1 (Homo sapiens, UniProt P26358)", "experiment": "DNMT1 methyltransferase inhibitors, confirmation, biochemical, fluorescent molecular beacon (AID 602386)", "assay_type": "functional"}}, "note": "The source made the active and inactive calls.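 For AC50 in this document: fluorescence polarization of a labeled DNA duplex reporting LANA DNA binding; potency is for inhibitors that block LANA binding to the DNA.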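 For EC50 Mean in this document: caspase-3 cleavage of fluorogenic Rh110 DEVD substrate downstream of apoptosome activation.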", "data": [{"smiles": "O=C(c1ccc(S(=O)(=O)Nc2ccc(F)cc2)cc1)N1CCN(c2ccccn2)CC1", "values": [{"measurement": "IC50", "setting": "CHO-K1", "result": "> 66.2 µM (inactive)"}, {"measurement": "IC50", "setting": "[1]", "result": "14.7 µM (inactive)"}, {"measurement": "IC50", "setting": "[2]", "result": "4.45 µM (active)"}, {"measurement": "IC50", "setting": "[3]", "result": "7.1 µM (active)"}, {"measurement": "IC50", "setting": "Orexin receptor type 2 [4]", "result": "15.6 µM (inactive)"}, {"measurement": "IC50", "setting": "Orexin receptor type 2 [5]", "result": "> 50 µM (inactive)"}]}, {"smiles": "O=C(Nc1cccc(S(=O)(=O)NCc2ccco2)c1)c1cc(-c2ccccc2)nc2ccccc12", "values": [{"measurement": "IC50", "setting": "CHO-K1", "result": "> 66.2 µM (inactive)"}, {"measurement": "IC50", "setting": "[1]", "result": "> 49.7 µM (inactive)"}, {"measurement": "IC50", "setting": "[2]", "result": "2.98 µM (active)"}, {"measurement": "IC50", "setting": "[3]", "result": "> 5.53 µM (active)"}, {"measurement": "IC50", "setting": "Orexin receptor type 2 [4]", "result": "16.9 µM (inactive)"}, {"measurement": "IC50", "setting": "Orexin receptor type 2 [5]", "result": "> 50 µM (inactive)"}]}, {"smiles": "COC(=O)c1coc(-c2ccc(F)cc2)n1", "values": [{"measurement": "EC50", "setting": "[6]", "result": "> 100 µM (inactive)"}]}, {"smiles": "O=C(O)c1ccc(-n2cccc2/C=C2/NC(=O)N(c3cccc(Cl)c3)C2=O)cc1", "values": [{"measurement": "IC50", "setting": "[7]", "result": "3.28 µM (active)"}, {"measurement": "IC50", "setting": "NS3", "result": "6.07 µM (active)"}, {"measurement": "IC50", "setting": "[8]", "result": "48.1 µM (active)"}, {"measurement": "IC50", "setting": "[9]", "result": "66.8 µM (active)"}, {"measurement": "IC50", "setting": "[10]", "result": "6.34 µM (active)"}, {"measurement": "AC50", "setting": "ORF 73", "result": "86.8 µM (active)"}, {"measurement": "IC50", "setting": "[11]", "result": "50 µM (inactive)"}, {"measurement": "IC50", "setting": "[12]", "result": "4.62 µM (active)"}]}]}
